Patent US20240148821A1, “PHARMACEUTICAL USE OF CYCLIC PEPTIDE COMPOUND” (CHUGAI SEIYAKU KABUSHIKI KAISHA, priority 2021, published 2024)
Numbered stars: 1 amine (or outer) side, 2 acyl side, 3 side chain; on linkers, the order of the positions; unused ones are H or OH. Bridge positions count the residues as written; N and C are the ends. Square brackets hold non-standard residues; d marks the D form. Peptide text beside a SMILES is read from it. * marks the point of attachment. hPhe(3,5-F2-4-CF3) = N[C@@H](CCc1cc(F)c(C(F)(F)F)c(F)c1)C(=O)O; hPhe(3-Cl-4-CF3) = N[C@@H](CCc1ccc(C(F)(F)F)c(Cl)c1)C(=O)O; hPhe(3-F,4-CF3) = N[C@@H](CCc1ccc(C(F)(F)F)c(F)c1)C(=O)O; X27 = CN([C@@H](Cc1ccc(C(F)(F)F)nc1)C(=O)[*:2])[*:1]; NMePhe(4-CF3) = CN[C@@H](Cc1ccc(C(F)(F)F)cc1)C(=O)O; X18 = O=C([C@H](CCc1ccc(C(F)(F)F)cn1)N[*:1])[*:2]; hPhe(4-CF3) = N[C@@H](CCc1ccc(C(F)(F)F)cc1)C(=O)O; NMePhe(4-Cl) = CN[C@@H](Cc1ccc(Cl)cc1)C(=O)O; NMeNle(6-CHF2) = CN[C@@H](CCCCC(F)F)C(=O)O; NMedβ3hAla = C[C@H](CC(=O)[*:2])N(C)[*:1]; NMeGly(cPent) = CN[C@H](C(=O)O)C1CCCC1; NMe3Pal = CN[C@@H](Cc1cccnc1)C(=O)O; NMeCha = CN[C@@H](CC1CCCCC1)C(=O)O; NMeChg = CN[C@H](C(=O)O)C1CCCCC1; NMeI = CC[C@H](C)[C@H](NC)C(=O)O; NMeD = CN[C@@H](CC(=O)O)C(=O)O; NMeL = CN[C@@H](CC(C)C)C(=O)O; Ala(CN) = N#CC[C@H](N)C(=O)O; Chg = N[C@H](C(=O)O)C1CCCCC1; dNMeAbu = CC[C@@H](NC)C(=O)O; NMeV = CN[C@H](C(=O)O)C(C)C; d(β3hA) = C[C@@H](N)CC(=O)O; Pip = O=C(O)[C@@H]1CCCCN1; Morpholide = C1CN(*)CCO1; NMeA = CN[C@@H](C)C(=O)O; NMeAib = CNC(C)(C)C(=O)O; Nle = CCCC[C@H](N)C(=O)O; Piperidide = C1CCN(*)CC1; Pra = C#CC[C@H](N)C(=O)O; Pyrrolidide = C1CCN(*)C1; dNMeA = CN[C@H](C)C(=O)O; Ac5c = NC1(C(=O)O)CCCC1; Aze = O=C(O)[C@@H]1CCN1; Aib = CC(C)(N)C(=O)O; Sar = CNCC(=O)O

Assays:
[1] = system: Human pancreatic cancer cell line AsPC-1 (G12D mutation Kras); experiment: AsPC-1 cell growth inhibition (AsPC-1 CGI); type: cell-based; conditions: read-out: AsPC-1 cell growth inhibition, 50% growth inhibitory concentration (IC50 value); 96 hours, CellTiter-Glo, values classified in ranges
Method: Test compounds were serially dilated with dimethyl sulfoxide, and 200 nL was then dispensed to a U-bottom 96-well plate using Labcyte Echo. […] The cell suspension was dispensed to a. plate containing a test compound at 100 μL per well and incubated at 37° C. in a 5% carbon dioxide gas incubator. 96 hours later, 80 μL of CellTiter-Glo (Promega) was added to each well and fluorescence was measured.

[2] = molecular target: protein-protein interaction between Kras and SOS1 (biotin-tagged human Kras loaded with GDP, His-tagged human SOS1) (Homo sapiens (Human), UniProt P01116, G12D); experiment: Protein-protein interaction inhibition between Kras and SOS1 (KrasG12D-SOS PPI) using AlphaScreen; type: biochemical; conditions: AlphaScreen; biotin-tagged human Kras loaded with GDP, His-tagged human SOS1; read-out: KRAS G12D-SOS PPI IC50;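 note: kras produced in E. coli, Ni-coupled donor beads and streptavidin acceptor beads, excitation 680 nm with emission detected at 520–620 nm via singlet oxygen transfer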

Compound | IC50 [1] | IC50 [2]
CC(C)C[C@H]1C(=O)N[C@@H](CC#N)C(=O)N(C)[C@@H](C)C(=O)N2CC[C@H]2C(=O)N(C)[C@@H](CC2CCCCC2)C(=O)N(C)CC(=O)N[C@@H](CCc2ccc(C(F)(F)F)c(Cl)c2)C(=O)N2CCC[C@H]2C(=O)NC2(CCCC2)C(=O)N(C)[C@@H](C(C)C)C(=O)N(C)[C@H](C(=O)N2CCCCC2)CC(=O)N1C [Compound 278] ([NMeL][Ala(CN)][NMeA][Aze][NMeCha][Sar][hPhe(3-Cl-4-CF3)]P[Ac5c][NMeV][NMeD]-Piperidide; lactam N-11) | > 500 nM | 25 nM
CC[C@H](C)[C@@H]1NC(=O)[C@H](C)N(C)C(=O)C[C@@H](C(=O)N2CCOCC2)N(C)C(=O)[C@H](C2CCCCC2)N(C)C(=O)C2(CCCC2)NC(=O)[C@H](Cc2cccnc2)N(C)C(=O)[C@H](CCc2ccc(C(F)(F)F)c(Cl)c2)NC(=O)CN(C)C(=O)[C@H](CC2CCCCC2)N(C)C(=O)CN(C)C(=O)CN(C)C1=O [Compound 1718] ([NMeA]I[Sar][Sar][NMeCha][Sar][hPhe(3-Cl-4-CF3)][NMe3Pal][Ac5c][NMeChg][NMeD]-Morpholide; lactam N-11) | > 500 nM | 0.8 nM
CC[C@H](C)[C@@H]1NC(=O)[C@H](CC(C)C)N(C)C(=O)C[C@@H](C(=O)N2CCCCC2)N(C)C(=O)[C@H](C2CCCC2)N(C)C(=O)C2(CCCC2)NC(=O)[C@@H]2CCCN2C(=O)[C@H](CCc2ccc(C(F)(F)F)cn2)NC(=O)CN(C)C(=O)[C@H](CC2CCCCC2)N(C)C(=O)[C@@H]2CCN2C(=O)[C@H](C)N(C)C1=O [Compound 2069] ([NMeL]I[NMeA][Aze][NMeCha][Sar][X18]P[Ac5c][NMeGly(cPent)][NMeD]-Piperidide; lactam N-11 (inferred); C-terminus assumed) | > 500 nM | 78 nM
CC[C@H](C)[C@@H]1NC(=O)[C@H](C)N(C)C(=O)C[C@@H](C(=O)N2CCCCC2)N(C)C(=O)[C@H](C(C)C)N(C)C(=O)C2(CCCC2)NC(=O)[C@@H]2CCCN2C(=O)[C@H](CCc2ccc(C(F)(F)F)c(Cl)c2)NC(=O)[C@@H](C)N(C)C(=O)[C@H](CC2CCCCC2)N(C)C(=O)[C@@H]2CCN2C(=O)CN(C)C1=O [Compound 115] ([NMeA]I[Sar][Aze][NMeCha][dNMeA][hPhe(3-Cl-4-CF3)]P[Ac5c][NMeV][NMeD]-Piperidide; lactam N-11) | > 500 nM | 6 nM
CCCC[C@@H]1NC(=O)[C@H](CCc2ccc(C(F)(F)F)c(Cl)c2)NC(=O)CN(C)C(=O)[C@H](Cc2ccc(Cl)cc2)N(C)C(=O)[C@@H]2CCN2C(=O)[C@H](C)N(C)C(=O)[C@H]([C@@H](C)CC)NC(=O)[C@@H]2CCCCN2C(=O)C[C@@H](C(=O)N2CCCCC2)N(C)C(=O)[C@H](CC(C)C)NC(=O)C(C)(C)N(C)C1=O [Compound 103] ([Pip]I[NMeA][Aze][NMePhe(4-Cl)][Sar][hPhe(3-Cl-4-CF3)][Nle][NMeAib]L[NMeD]-Piperidide; lactam N-11) | > 500 nM | 22 nM
CC[C@H](C)[C@@H]1NC(=O)[C@H](CC(C)C)N(C)C(=O)C[C@@H](C)N(C)C(=O)[C@H](CC(C)C)NC(=O)C(C)(C)N(C)C(=O)[C@H](C(C)C)NC(=O)[C@H](CCc2ccc(C(F)(F)F)c(F)c2)NC(=O)CN(C)C(=O)[C@H](Cc2ccc(Cl)cc2)N(C)C(=O)CN(C)C(=O)CN(C)C1=O [Compound 1054] (cyclo(I[Sar][Sar][NMePhe(4-Cl)][Sar][hPhe(3-F,4-CF3)]V[NMeAib]L[NMedβ3hAla][NMeL])) | > 500 nM | 120 nM
CC(C)C[C@H]1C(=O)N[C@@H](C2CCCCC2)C(=O)N(C)CC(=O)N(C)CC(=O)N(C)[C@@H](CCCCC(F)F)C(=O)N(C)CC(=O)N[C@@H](CCc2ccc(C(F)(F)F)c(F)c2)C(=O)N(C)[C@@H](CC(C)C)C(=O)NC(C)(C)C(=O)N(C)[C@@H](CC(C)C)C(=O)N[C@H](C)CC(=O)N1C [Compound 1460] (cyclo([Aib][NMeL][d(β3hA)][NMeL][Chg][Sar][Sar][NMeNle(6-CHF2)][Sar][hPhe(3-F,4-CF3)][NMeL])) | > 500 nM | 130 nM
CC[C@H](C)[C@@H]1NC(=O)[C@H](CC(C)C)N(C)C(=O)C[C@@H](C(=O)N2CCCC2)N(C)C(=O)[C@H](C2CCCC2)N(C)C(=O)C2(CCCC2)NC(=O)[C@@H]2CCCN2C(=O)[C@H](CCc2ccc(C(F)(F)F)c(Cl)c2)NC(=O)CN(C)C(=O)[C@H](Cc2ccc(C(F)(F)F)cc2)N(C)C(=O)[C@@H]2CCN2C(=O)[C@H](C)N(C)C1=O [Compound 589] ([NMeL]I[NMeA][Aze][NMePhe(4-CF3)][Sar][hPhe(3-Cl-4-CF3)]P[Ac5c][NMeGly(cPent)][NMeD]-Pyrrolidide; lactam N-11) | ≤ 20 nM | 0.49 nM
CC[C@H](C)[C@@H]1NC(=O)[C@H](CC(C)C)N(C)C(=O)C[C@@H](C)N(C)C(=O)[C@H](C(C)C)NC(=O)C(C)(C)N(C)C(=O)[C@H](CC(C)C)NC(=O)[C@H](CCc2ccc(C(F)(F)F)c(F)c2)NC(=O)CN(C)C(=O)[C@H](Cc2ccc(Cl)cc2)N(C)C(=O)CN(C)C(=O)CN(C)C1=O [Compound 1084] (cyclo(I[Sar][Sar][NMePhe(4-Cl)][Sar][hPhe(3-F,4-CF3)]L[NMeAib]V[NMedβ3hAla][NMeL])) | > 500 nM | 53 nM
CC[C@H](C)[C@@H]1NC(=O)[C@H](CC(C)C)N(C)C(=O)C[C@@H](C(=O)N2CCOCC2)N(C)C(=O)[C@H]([C@@H](C)CC)N(C)C(=O)C2(CCCC2)NC(=O)[C@@H]2CCCN2C(=O)[C@H](CCc2cc(F)c(C(F)(F)F)c(F)c2)NC(=O)CN(C)C(=O)[C@H](Cc2ccc(C(F)(F)F)cc2)N(C)C(=O)[C@@H]2CCN2C(=O)[C@H](C)N(C)C1=O [Compound 1362] ([NMeL]I[NMeA][Aze][NMePhe(4-CF3)][Sar][hPhe(3,5-F2-4-CF3)]P[Ac5c][NMeI][NMeD]-Morpholide; lactam N-11) | ≤ 20 nM | 0.81 nM
CC[C@H](C)[C@@H]1NC(=O)[C@H](CC(C)C)N(C)C(=O)C[C@@H](C(=O)N2CCOCC2)N(C)C(=O)[C@H]([C@@H](C)CC)N(C)C(=O)C2(CCCC2)NC(=O)[C@@H]2CCCN2C(=O)[C@H](CCc2ccc(C(F)(F)F)c(Cl)c2)NC(=O)CN(C)C(=O)[C@H](Cc2ccc(C(F)(F)F)cc2)N(C)C(=O)[C@@H]2CCN2C(=O)[C@H](C)NC1=O [Compound 1293] ([NMeL]IA[Aze][NMePhe(4-CF3)][Sar][hPhe(3-Cl-4-CF3)]P[Ac5c][NMeI][NMeD]-Morpholide; lactam N-11) | ≤ 20 nM | 0.96 nM
CC[C@H](C)[C@@H]1NC(=O)[C@H](CC(C)C)N(C)C(=O)C[C@@H](C)N(C)C(=O)[C@H](CC(C)C)NC(=O)C(C)(C)N(C)C(=O)[C@H](CC(C)C)NC(=O)[C@H](CCc2ccc(C(F)(F)F)cc2)NC(=O)CN(C)C(=O)[C@H](CC2CCCCC2)N(C)C(=O)CN(C)C(=O)CN(C)C1=O [Compound 262] (cyclo(I[Sar][Sar][NMeCha][Sar][hPhe(4-CF3)]L[NMeAib]L[NMedβ3hAla][NMeL])) | > 500 nM | 43 nM
CC[C@H](C)[C@@H]1NC(=O)[C@H](CC(C)C)N(C)C(=O)C[C@@H](C(=O)N(C)C)N(C)C(=O)[C@H]([C@@H](C)CC)N(C)C(=O)C2(CCCC2)NC(=O)[C@@H]2CCCN2C(=O)[C@H](CCc2ccc(C(F)(F)F)c(F)c2)NC(=O)CN(C)C(=O)[C@H](CC2CCCCC2)N(C)C(=O)[C@@H]2CCN2C(=O)[C@H](C)N(C)C1=O [Compound 999] ([NMeL]I[NMeA][Aze][NMeCha][Sar][hPhe(3-F,4-CF3)]P[Ac5c][NMeI][NMeD]-NMe2; lactam N-11) | ≤ 20 nM | 1.7 nM
CC[C@H](C)[C@@H]1NC(=O)[C@H](CC(C)C)N(C)C(=O)C[C@@H](C(=O)N2CCCCC2)N(C)C(=O)[C@H](C2CCCCC2)N(C)C(=O)C2(CCCC2)NC(=O)[C@H](Cc2ccc(C(F)(F)F)nc2)N(C)C(=O)[C@H](CCc2ccc(C(F)(F)F)c(Cl)c2)NC(=O)CN(C)C(=O)[C@H](CC2CCCCC2)N(C)C(=O)CN(C)C(=O)CN(C)C1=O [Compound 10] ([NMeL]I[Sar][Sar][NMeCha][Sar][hPhe(3-Cl-4-CF3)][X27][Ac5c][NMeChg][NMeD]-Piperidide; lactam N-11) | > 500 nM | 18 nM
C#CC[C@@H]1NC(=O)[C@H](CC(C)C)N(C)C(=O)C[C@@H](C)NC(=O)[C@H](CC(C)C)N(C)C(=O)C(C)(C)NC(=O)[C@H](CC(C)C)N(C)C(=O)[C@H](CCc2ccc(C(F)(F)F)c(F)c2)NC(=O)CN(C)C(=O)[C@H](CC2CCCCC2)N(C)C(=O)CN(C)C(=O)CN(C)C1=O [Compound 1474] (cyclo([Aib][NMeL][d(β3hA)][NMeL][Pra][Sar][Sar][NMeCha][Sar][hPhe(3-F,4-CF3)][NMeL])) | > 500 nM | 240 nM
CC[C@@H]1C(=O)NC2(CCCC2)C(=O)N(C)[C@@H](C2CCCCC2)C(=O)N(C)[C@H](C(=O)N2CCCCC2)CC(=O)N(C)[C@@H](CC(C)C)C(=O)N[C@@H]([C@@H](C)CC)C(=O)N(C)CC(=O)N(C)CC(=O)N(C)[C@@H](CC2CCCCC2)C(=O)N(C)CC(=O)N[C@@H](CCc2ccc(C(F)(F)F)c(Cl)c2)C(=O)N1C [Compound 1435] ([NMeL]I[Sar][Sar][NMeCha][Sar][hPhe(3-Cl-4-CF3)][dNMeAbu][Ac5c][NMeChg][NMeD]-Piperidide; lactam N-11) | > 500 nM | 7.4 nM
